pIC50: −log10 of the molar value.
Key:
[1] = molecular target: T1, CD11b/CD18 (Homo sapiens, UniProt P05107+P11215); test: Downmodulation of CD11b/CD18 on macrophages (binding of C3bi-coated erythrocytes); assay type: cell-based; settings: peptides 0.5 mM
T1 construct: peptide-coated wells, C3bi-erythrocyte rosetting
Method: FIG. 27 is a bar graph representation of the downmodμlation of CD11b/CD18 by FHA-peptides. mAb IB4 (50 μg/ml) served as a positive control. Data represent means±standard deviations of triplicate experiments with 6 wells/peptide.
Human monocytes were purified from buffy coats on Percoll gradients and cultured in 12.5% human serum in Teflon beakers. Macrophages were harvested from Teflon beakers after 6-8 days and suspended in HAP buffer. Terasaki wells were coated with 5 μl of peptides (0.5 mM) or anti-CD18 mAb IB4 (50 μg/ml). Control wells were coated with HAP. After 2 hours of incubation at RT, 5 μl of macrophages (5×10^5 /ml HAP) were added and allowed to spread for 45 mins. at 37° C. […] IgM-coated erythrocytes in buffer served as negative control. After washing, the number of erythrocytes bound per 100 leukocytes (adherence index) was quantitated visually under an inverted microscope.

[2] = test system: peripheral white blood cells; test: Rat meningitis model: peripheral white blood cell concentrations; assay type: in vivo, female Wistar rats; settings: following i.v. administration
Method: Three hours after LOS inoculation, 5 μCi of ^125 I-radiolabelled albumin in 50 μl normal saline was administered intravenously. One hour later, CSF was collected via intracisternal puncture and blood samples were collected via intracardiac puncture. CSF leukocytosis was determined by manually counting white blood cells using a hemacytometer, and blood-brain barrier permeability was determined as the percent of radioactivity in whole blood that was present in the CSF. Blood samples were obtained immediately prior to inoculation, immediately prior to treatment, and at 4 hours post-inoculation for determination of peripheral white blood cell concentrations.

[3] = Stability of FHA II peptide in 50% rabbit plasma; assay type: in vitro ADME; settings: 37° C.
Method: To determine the stability of the FHA II peptide, the unmodified or the acetylated-amidated peptide were incubated in 50% rabbit plasma at 37° C.

[4] = test system: Factor Xa procoagulant activity on THP-1 cells; test: Generation of Factor Xa by monocytes (THP-1), clotting assay; assay type: cell-based; settings: for Factor Xa / Clotting time: peptides 0.5 mM; for Clotting time: mean ± SD of at least 3 experiments
Method: Factor Xa generation was determined by a modification of the method of Miletich et al. (1978), J. Biol. Chem. 253: 6908-6916. THP-1 cells (ATCC; […]) resuspended in RPMI 1640 (Bio Whittaker, Walkersville,Md.) were incubated with 100 μM ADP (Sigma), 2.5 mM CaC2, 1 or 5 μg/ml Factor X (Hematologic Technologies Inc.) and 0.5 mM peptides at room temperature. After 20 minutes, 100 μl of the reaction mixture was transferred to 37° C. and supplemented with 100 μl of bovine factor VII- and Factor X-deficient plasma (Sigma). Coagulation was initiated by adding 100 μl of 25 mM CaC2 and the clotting time was determined. Factor Xa procoagulant activity (ng/ml) was calculated by means of a standard curve constructed by serial concentrations of Factor Xa (Hematologic Technologies Inc.) from 50 to 250 ng/ml.

[5] = test system: 125I-Factor X binding to human neutrophils (CD11b/CD18); test: Inhibition of 125I-Factor X binding to neutrophils; assay type: cell-based; settings: for inhibition of 125I-Factor X binding to neutrophils: peptides 0.5 mM, native FHA 0.3 μM
Method: FIG. 15 is a bar graph representation of the inhibition of ^125 I-Factor X binding to neutrophils by FHA, FHA- or Factor X-peptides as identified in Table 6. The concentration of inhibiting substances was: peptides 0.5 mM, native FHA 0.3 μM. Values represent the mean±standard deviation of triplicate experiments.
FIG. 16 is a graphical representation of the FHA, FHA- or Factor X-peptide concentration effect on the inhibition of ^125 I-Factor X binding to neutrophils. FHA peptide II (Square) and Factor X peptide II (Circle) at 10^-2 to 5×10^2 μM; FHA at 10^-6 to […] (triangle). Values are representative of triplicate experiments (standard deviations <15%).
Human Factor X (Sigma or Hematologic Technologies Inc.) was labeled with ^125 I using Iodogen (Pierce Chemical Co.) Human neutrophils were isolated from heparinized blood according to the manufacturer's specification using Neutrophil Isolation Medium (Cardinal Associates, Santa Fe, N. Mex.) and washed three times with 5 mM EDTA-phosphate-buffered saline (PBS), pH 7.2, at 4° C. To eliminate platelet contamination, neutrophils were incubated with autologous serum containing 5 mM EDTA for 30 mins. at 37° C., washed three times with ice-cold PBS, pH 7.2, and resuspended in RPMI 1640 tissue culture medium (Whittaker M.A. Bioproducts, Walkersville, Md.) at 4° C. Binding of ^125 I-Factor X to neutrophils was measured based on a method described by Altieri et al. (1991) Science 254: 1200-1202. Briefly, 200 μl of neutrophils (1.5×10^7 /ml) were supplemented with 17.5 μl of 50 mM CaCl2, stimulated with 3.5 μl of 100 μM NH2 -formyl-Met-Leu-Phe (Sigma), and mixed with 30 μl of 10.3 μg/ml ^125 I-Factor X and 100 μl of 1.75 mM of peptide. Buffer alone and a peptide of scrambled sequence served as controls in each of the 3 experiments. After incubation for 20 mins. at room temperature, neutrophil-bound ^125 I-Factor X was separated from unbound ^125 I-Factor X by centrifugation of 300 μl aliquots through 50 μl of a mixture of Hi phenyl silicone oil DC 550 and methyl silicone oil DC 200 5:1 (Nye Inc. Specialty Lubricants, New Bedford, Mass.) at 12,000×g for 2 mins. Aliquots of the supernatant (cell free ^125 I-Factor X) and the cell pellet (cell bound ^125 I-Factor X) were counted in a gamma-counter. Nonspecific binding (~50,000 cpm) was determined by adding a 100 fold excess of unlabeled Factor X, and subtracted from total radioactivity (~500,000 cpm for controls).

[6] = test system: leukocyte migration into the CSF; test: Anti-inflammatory activity in rabbits with meningitis (FIG. 5, FIG. 6); assay type: in vivo, rabbit; settings: intravenous
From the text: This inhibitory activity implies that antibodies to FHA which bind to any of the three Factor X regions would disturb leukocyte recruitment. This is to be distinguished from anti-FHA antibodies that bind to endothelia by recognizing an integrin receptor which is an endothelial cell component (see below). […] This is shown in FIG. 6 where various doses of antibody were given to rabbits and the number of leukocytes recruited into the cerebrospinal fluid in response to pneumonoccal meningitis was determined.

T1 sequence (P05107 23-769, other chains not shown): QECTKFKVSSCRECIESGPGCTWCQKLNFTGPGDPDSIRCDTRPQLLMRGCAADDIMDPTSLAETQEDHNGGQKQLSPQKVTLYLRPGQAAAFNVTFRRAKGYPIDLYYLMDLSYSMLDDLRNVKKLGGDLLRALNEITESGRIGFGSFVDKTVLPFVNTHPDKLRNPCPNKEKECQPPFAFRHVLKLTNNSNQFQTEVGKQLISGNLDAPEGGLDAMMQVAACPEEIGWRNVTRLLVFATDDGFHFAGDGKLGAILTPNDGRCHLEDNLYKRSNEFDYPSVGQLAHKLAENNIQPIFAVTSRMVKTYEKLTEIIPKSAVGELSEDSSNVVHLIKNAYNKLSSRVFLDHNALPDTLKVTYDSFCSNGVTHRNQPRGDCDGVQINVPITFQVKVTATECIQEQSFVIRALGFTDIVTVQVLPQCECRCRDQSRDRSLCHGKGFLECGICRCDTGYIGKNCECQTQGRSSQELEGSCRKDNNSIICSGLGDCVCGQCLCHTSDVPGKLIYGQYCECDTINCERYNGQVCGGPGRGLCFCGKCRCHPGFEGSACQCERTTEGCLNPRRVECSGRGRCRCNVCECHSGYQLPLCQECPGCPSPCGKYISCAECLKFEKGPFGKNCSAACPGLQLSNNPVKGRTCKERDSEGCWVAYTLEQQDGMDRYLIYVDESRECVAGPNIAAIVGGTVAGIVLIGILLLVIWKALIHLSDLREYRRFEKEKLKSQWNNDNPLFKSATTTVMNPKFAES

| Substance | downmodulation of CD11b/CD18 (in words) [1] | Factor Xa [4] | Clotting time [4] | pIC50 [5] | other results |
| --- | --- | --- | --- | --- | --- |
| AADPHQGVLAQGDIIMDAKG [FHA Cc] | no significant effect |  |  |  |  |
| RGDPHQGVLAQGDIIMDAKG [FHA Ca] |  |  |  |  | reduction of binding of C3bi-coated erythrocytes to macrophages ([1]; IB4 50 μg/ml): 61±7%; neutropenia [2]: No neutropenia was observed |
| Ac-ETKEVDG-NH2 [Acetyl/Amide-FHA II] |  |  |  |  | stability in plasma (in words) ([3]; 48 hours): remained unchanged over 48 hours; neutropenia [2]: No neutropenia was observed |
| LGYQAK (UniProt P12255 1979-1984, looked up, fragment) [FHA Ia] |  | 57.4 ng/mL | 34.1 ± 1.1 s |  |  |
| GYDTKQEDG [Factor X II] |  | < 10 ng/mL | 55.2 ± 4.0 s | 3.30 | reduction of Factor Xa production ([4]; 0.5 mM, vs scrambled FHA II, 20 min): > 90% |
| GTLLLRNDALTENGTVTISA [FHA Cd] | no significant effect |  |  |  |  |
| DEETVK [scrambled FHA II, reference compound] |  | 165.0 ng/mL | 23.1 ± 1.0 s |  | Factor Xa ([4]; control FHA II peptide): 165 ng/mL |
| RADPHQGVLAQGDIIMDAKG [FHA Cb] | no significant effect |  |  |  |  |
| native FHA: Filamentous hemagglutinin, 220kD surface associated protein of Bordetella pertussis (List Biologicals) |  |  |  | 7.00 | inhibition of 125I-Factor X binding to neutrophils [5]: 70±4%; antiinflammatory activity in meningitis (in words) [6]: antiinflammatory activity in the sense of inhibiting leukocyte migration into the CSF |
| ETKEVDG [FHA II] |  | 86.0 ng/mL | 30.0 ± 5.0 s | 5.00 | inhibition of 125I-Factor X binding to neutrophils [5]: 87±8%; effect on Factor Xa generation (in words) [4]: did not interfere with the generation of Factor Xa procoagulant activity; time in which concentration decreased by half [3]: 4 to 6 h |
